Reference: ChEMBL document CHEMBL4665772, “Secoiridoids and Iridoids from Morinda asteroscepa” (J Nat Prod, 2020)
The source made the active and inactive calls. The rule behind the calls is not given here.

Test system: Plasmodium falciparum
Assay: Antimalarial activity against Plasmodium falciparum 3D7 at 10 uM
Type: functional, organism-based

Compound | Activity
COC(=O)[C@@H](CO)[C@H]1[C@H](O)C[C@](C)(OC(C)=O)[C@H]1C(=O)O | inactive
COC(=O)C1=CO[C@@H](O[C@@H]2O[C@H](CO)[C@@H](O)[C@H](O)[C@H]2O)[C@H]2[C@@H]1[C@H](O)C[C@]2(C)OC(C)=O | inactive
COC(=O)[C@@H]1COC(=O)[C@H]2[C@@H]1[C@@H](O)C[C@@]2(C)OC(C)=O | inactive
COC(=O)[C@@H](CO)[C@H]1[C@H](O)C[C@](C)(O)[C@H]1C(=O)O | inactive
